Results as given in patent publication US10857110B2, “Antibacterial compounds” (CONSEJO NACIONAL DE INVESTIGACIONES CIENTÍFICAS Y TÉCNICAS …, priority 2016, dated 2020).
Values after ≈ are worked out from the molar mass of the structure shown.

Assays:
[1] = test system: Burkholderia seminalis (CBC 040); details: reference (1); cited from earlier work
[2] = test system: B. cenacepacia (FQC2524); experiment: MIC/MBC antibiotic sensitivity (CLSI); assay type: cell-based, B. cenocepacia; details: Ceftazimide, CLSI criteria
Experimental: (§1) The new compounds of the invention were synthesized following the general method of preparation (Tetrahedron, 2001, 57, 1671-1675), from the reaction between an intermediary compound of the acyl thiourea and HgCl2 in presence of trimethylamine. The products were adequately characterized regarding its chemistry. The antibacterial activity of the new compounds was assayed against two Gram-positive reference strains: Staphylococcus aureus (ATCC6538) and Bacillus cereus (ATCC10876), a fermenting Gram-negative strain: Escherichia coli (ATCC25922), and 26 non-fermenting Gram-negative isolates, including 3 reference strains: Pseudomonas aeruginosa (PAO1), Bordetella bronchiseptica (9.73H+), and Inquilinus limosus (DSM16000), and 23 isolates recovered from patients suffering from cystic fibrosis, including one Achromobacter xylosoxidans isolate, and 22 isolates belonging to the Burkholderia cepacia complex. The later were selected because they presented resistance to a high number of antimicrobial compounds, among a panel of 125 clinical isolates previously analyzed for its resistance against 17 antimicrobial compounds (1,2). The antibiotic sensitivity studies were performed by applying two quantitative methods which allow to determine the minimum inhibitory concentration (MIC) and the minimum bactericidal concentration (MBC).
(§2) The compounds obtained in Examples 1 and 2 were assayed against 23 isolates recovered from the sputum of patients suffering from cystic fibrosis being treated at the Sor Maria Ludovica Children Hospital (La Plata, Buenos Aires, Argentina). Nineteen of these isolates were selected for being highly resistant to most of the antimicrobial agents of clinical use from a panel of 125 isolates previously characterized in Martina et al. (1). Reference strains were also included: Gram (+) bacteria: B. cereus and S. aureus, fermenting Gram (−) bacteria: E. coli, and non-fermenting Gram (−) bacteria: Inquilinus limosus (DSM16000), B. bronchiseptica, and Pseudomonas aeruginosa (PAO1). The antibiotic sensitivity studies were performed applying two quantitative methods which allow to determine the minimum inhibitory concentration (MIC) and the minimum bactericidal concentration (MBC) according to the criteria established by the Clinical and Laboratory Standards Institute (CLSI) (4). For comparative purposes, three antibiotics commonly used in the treatment of pulmonary infections in cystic fibrosis patients were included in the study: tobramycin, ceftazidime and meropenem.

[3] = test system: Achromobacter xylosaxidans (HNA001); experiment: MIC/MBC antibiotic sensitivity (CLSI); assay type: cell-based, Achromobacter xylosoxidans; details: Ceftazimide, CLSI criteria; A. xylosaxidans (HNA001)
Experimental: as §1, §2

[4] = test system: Burkholderia cenocepacia (CBC 024); experiment: MIC/MBC antibiotic sensitivity (CLSI); assay type: cell-based
Experimental: as §1, §2

[5] = test system: Burkholderia multivorans (CBC 019); experiment: MIC/MBC antibiotic sensitivity (CLSI); assay type: cell-based; details: Ceftazimide, CLSI criteria; B. multivorans (CBC 019)
Experimental: as §1, §2

[6] = test system: Burkholderia seminalis (CBC 042); experiment: MIC/MBC antibiotic sensitivity (CLSI); assay type: cell-based; details: Ceftazimide, CLSI criteria; B. seminalis (CBC 042)
Experimental: as §1, §2

[7] = test system: B. contaminans (HNBC001); experiment: MIC/MBC antibiotic sensitivity (CLSI); assay type: cell-based; details: Ceftazimide, CLSI criteria
Experimental: as §1, §2

[8] = test system: Staphylococcus aureus (ATCC6538); experiment: MIC/MBC antibiotic sensitivity (CLSI); assay type: cell-based; details: S. aureus (ATCC6538)
Experimental: as §1, §2

[9] = test system: Inquilinus limosus (DSM16000); experiment: MIC/MBC antibiotic sensitivity (CLSI); assay type: cell-based; details: Ceftazimide, CLSI criteria
Experimental: as §1, §2

[10] = test system: Pseudomonas aeruginosa (PAO1); experiment: MIC/MBC antibiotic sensitivity (CLSI); assay type: cell-based; details: P. aeruginosa (PAO1)
Experimental: as §1, §2

[11] = test system: Burkholderia seminalis (CBC 040); experiment: MIC/MBC antibiotic sensitivity (CLSI); assay type: cell-based; details: Ceftazimide, CLSI criteria; B. seminalis (CBC 040)
Experimental: as §1, §2

[12] = test system: Burkholderia multivorans (CBC 022); experiment: MIC/MBC antibiotic sensitivity (CLSI); assay type: cell-based; details: Ceftazimide, CLSI criteria; B. multivorans (CBC 022)
Experimental: as §1, §2

[13] = test system: Burkholderia multivorans (CBC 021); experiment: MIC/MBC antibiotic sensitivity (CLSI); assay type: cell-based; details: Ceftazimide, CLSI criteria; B. multivorans (CBC 021)
Experimental: as §1, §2

[14] = test system: Burkholderia cenocepacia (CBC 036); experiment: MIC/MBC antibiotic sensitivity (CLSI); assay type: cell-based
Experimental: as §1, §2

[15] = test system: Burkholderia cenocepacia (HE001); experiment: MIC/MBC antibiotic sensitivity (CLSI); assay type: cell-based; details: Ceftazimide, CLSI criteria; B. cenocepacia (HE001)
Experimental: as §1, §2

[16] = test system: Bacillus cereus (ATCC10876); experiment: MIC/MBC antibiotic sensitivity (CLSI); assay type: cell-based
Experimental: as §1, §2

[17] = test system: Burkholderia multivorans (CBC 016); experiment: MIC/MBC antibiotic sensitivity (CLSI); assay type: cell-based
Experimental: as §1, §2

[18] = test system: Burkholderia cenocepacia (CBC 029); experiment: MIC/MBC antibiotic sensitivity (CLSI); assay type: cell-based
Experimental: as §1, §2

[19] = test system: Burkholderia cepacia (CBC 010); experiment: MIC/MBC antibiotic sensitivity (CLSI); assay type: cell-based; details: Ceftazimide, CLSI criteria; B. cepacia (CBC 010)
Experimental: as §1, §2

[20] = test system: Burkholderia cenocepacia (CBC 023); experiment: MIC/MBC antibiotic sensitivity (CLSI); assay type: cell-based; details: Ceftazimide, CLSI criteria; B. cenocepacia (CBC 023)
Experimental: as §1, §2

[21] = test system: Burkholderia cenocepacia (CBC 035); experiment: MIC/MBC antibiotic sensitivity (CLSI); assay type: cell-based
Experimental: as §1, §2

[22] = test system: Bordetella bronchiseptica (9.73H+); experiment: MIC/MBC antibiotic sensitivity (CLSI); assay type: cell-based; details: B. bronchiseptica (9.73H+)
Experimental: as §1, §2

[23] = test system: Escherichia coli (ATCC25922); experiment: MIC/MBC antibiotic sensitivity (CLSI); assay type: cell-based; details: E. coli (ATCC25922)
Experimental: as §1, §2

[24] = test system: Burkholderia cenocepacia (CBC 032); experiment: MIC/MBC antibiotic sensitivity (CLSI); assay type: cell-based
Experimental: as §1, §2

[25] = test system: Burkholderia cenocepacia (CBC 033); experiment: MIC/MBC antibiotic sensitivity (CLSI); assay type: cell-based
Experimental: as §1, §2

[26] = test system: Burkholderia multivorans (CBC 018); experiment: MIC/MBC antibiotic sensitivity (CLSI); assay type: cell-based
Experimental: as §1, §2

[27] = test system: Burkholderia multivorans (CBC 015); experiment: MIC/MBC antibiotic sensitivity (CLSI); assay type: cell-based
Experimental: as §1, §2

[28] = test system: Burkholderia cenocepacia (CBC 031); experiment: MIC/MBC antibiotic sensitivity (CLSI); assay type: cell-based
Experimental: as §1, §2

[29] = test system: Burkholderia multivorans (CBC 020); experiment: MIC/MBC antibiotic sensitivity (CLSI); assay type: cell-based; details: Ceftazimide, CLSI criteria; B. multivorans (CBC 020)
Experimental: as §1, §2

[30] = test system: Burkholderia cepacia (CBC 011); experiment: MIC/MBC antibiotic sensitivity (CLSI); assay type: cell-based; details: Ceftazimide, CLSI criteria; B. cepacia (CBC 011)
Experimental: as §1, §2

gentamicin
resistance of the strain to commercial antibiotics [1]: resistant

CO[C@@]1(NC(=O)Cc2cccs2)C(=O)N2C(C(=O)O)=C(COC(N)=O)CS[C@@H]21 [cefoxitin]
resistance of the strain to commercial antibiotics [1]: resistant

O=C(O)c1cn(C2CC2)c2cc(N3CCNCC3)c(F)cc2c1=O [ciprofloxacin]
resistance of the strain to commercial antibiotics [1]: resistant

CO/N=C(\C(=O)N[C@@H]1C(=O)N2C(C(=O)[O-])=C(C[N+]3(C)CCCC3)CS[C@H]12)c1csc(N)n1 [cefepime]
resistance of the strain to commercial antibiotics [1]: resistant

colistin
resistance of the strain to commercial antibiotics [1]: resistant

CC1(C)S[C@@H]2[C@H](NC(=O)[C@H](N)c3ccccc3)C(=O)N2[C@H]1C(=O)O [ampicillin]
resistance of the strain to commercial antibiotics [1]: resistant

NCC[C@H](O)C(=O)N[C@@H]1C[C@H](N)[C@@H](O[C@H]2O[C@H](CN)[C@@H](O)[C@H](O)[C@H]2O)[C@H](O)[C@H]1O[C@H]1O[C@H](CO)[C@@H](O)[C@H](N)[C@H]1O [amikacin]
resistance of the strain to commercial antibiotics [1]: resistant

CC(=O)OCC1=C(C(=O)O)N2C(=O)[C@@H](NC(=O)Cc3cccs3)[C@H]2SC1 [cefalotin]
resistance of the strain to commercial antibiotics [1]: resistant

CC(C)(O/N=C(\C(=O)N[C@@H]1C(=O)N2C(C(=O)[O-])=C(C[n+]3ccccc3)CS[C@H]12)c1csc(N)n1)C(=O)O [Ceftazimide, ceftazidime]
resistance of the strain to commercial antibiotics [1]: resistant
MIC (R/I/S category) [2]: S (<8 μg/ml S)
MIC (R/I/S category) [3]: S (<8 μg/ml S)
MBC ([4]; Burkholderia cenocepacia (CBC 024)): 7.81 µg/mL (≈ 14.3 µM)
MIC (R/I/S category) ([4]; Ceftazimide, CLSI criteria, B. cenocepacia (CBC 024)): S (<8 μg/ml S)
MIC (R/I/S category) [5]: R (>32 μg/ml R)
MIC (R/I/S category) [6]: R (>32 μg/ml R)
MIC (R/I/S category) [7]: S (<8 μg/ml S)
MBC [8]: 7.81 µg/mL (≈ 14.3 µM)
MIC [8]: 7.81 µg/mL (≈ 14.3 µM)
MIC (R/I/S category) [9]: R (>32 μg/ml R)
MBC [10]: 1.95 µg/mL (≈ 3.57 µM)
MIC [10]: 1.95 µg/mL (≈ 3.57 µM)
MIC (R/I/S category) [11]: R (>32 μg/ml R)
MIC (R/I/S category) [12]: R (>32 μg/ml R)
MIC (R/I/S category) [13]: R (>32 μg/ml R)
MBC ([14]; Burkholderia cenocepacia (CBC 036)): 15.62 µg/mL (≈ 28.6 µM)
MIC (R/I/S category) ([14]; Ceftazimide, CLSI criteria, B. cenocepacia (CBC 036)): S (<8 μg/ml S)
MIC (R/I/S category) [15]: R (>32 μg/ml R)
MBC [16]: 0.97 µg/mL (≈ 1.77 µM)
MIC [16]: 0.97 µg/mL (≈ 1.77 µM)
MBC ([17]; Burkholderia multivorans (CBC 016)): 3.9 µg/mL (≈ 7.14 µM)
MIC (R/I/S category) ([17]; Ceftazimide, CLSI criteria, B. multivorans (CBC 016)): S (<8 μg/ml S)
MBC ([18]; Burkholderia cenocepacia (CBC 029)): 15.62 µg/mL (≈ 28.6 µM)
MIC (R/I/S category) ([18]; Ceftazimide, CLSI criteria, B. cenocepacia (CBC 029)): S (<8 μg/ml S)
MIC (R/I/S category) [19]: R (>32 μg/ml R)
MIC (R/I/S category) [20]: R (>32 μg/ml R)
MBC ([21]; Burkholderia cenocepacia (CBC 035)): 15.62 µg/mL (≈ 28.6 µM)
MIC (R/I/S category) ([21]; Ceftazimide, CLSI criteria, B. cenocepacia (CBC 035)): S (<8 μg/ml S)
MBC [22]: 62.5 µg/mL (≈ 114 µM)
MIC [22]: 7.81 µg/mL (≈ 14.3 µM)
MBC [23]: 0.97 µg/mL (≈ 1.77 µM)
MIC [23]: 0.97 µg/mL (≈ 1.77 µM)
MBC ([24]; Burkholderia cenocepacia (CBC 032)): 7.81 µg/mL (≈ 14.3 µM)
MIC (R/I/S category) ([24]; Ceftazimide, CLSI criteria, B. cenocepacia (CBC 032)): S (<8 μg/ml S)
MBC ([25]; Burkholderia cenocepacia (CBC 033)): 31.25 µg/mL (≈ 57.2 µM)
MIC (R/I/S category) ([25]; Ceftazimide, CLSI criteria, B. cenocepacia (CBC 033)): S (<8 μg/ml S)
MBC ([26]; Burkholderia multivorans (CBC 018)): 7.81 µg/mL (≈ 14.3 µM)
MIC (R/I/S category) ([26]; Ceftazimide, CLSI criteria, B. multivorans (CBC 018)): S (<8 μg/ml S)
MBC ([27]; Burkholderia multivorans (CBC 015)): 7.81 µg/mL (≈ 14.3 µM)
MIC (R/I/S category) ([27]; Ceftazimide, CLSI criteria, B. multivorans (CBC 015)): S (<8 μg/ml S)
MBC ([28]; Burkholderia cenocepacia (CBC 031)): 7.81 µg/mL (≈ 14.3 µM)
MIC (R/I/S category) ([28]; Ceftazimide, CLSI criteria, B. cenocepacia (CBC 031)): S (<8 μg/ml S)
MIC (R/I/S category) [29]: R (>32 μg/ml R)
MIC (R/I/S category) [30]: R (>32 μg/ml R)

CCn1cc(C(=O)O)c(=O)c2ccc(C)nc21 [nalidixic acid]
resistance of the strain to commercial antibiotics [1]: resistant

CO/N=C(\C(=O)N[C@@H]1C(=O)N2C(C(=O)O)=C(COC(C)=O)CS[C@H]12)c1csc(N)n1 [cefotaxim]
resistance of the strain to commercial antibiotics [1]: resistant
